Experimental findings from patent US12357582B2, “Hydrophobic ion pairing and flash nanoprecipitation for formation of controlled-release nanocarrier formulations” (The Trustees of Princeton University, priority 2017, dated 2025) are described below.

Series [1] is described as follows: Ion-pairing screening using gentamicin API. Format: physicochemical. On the set-up: key to Reprecipitation: + details reprecipitation observed; − details no reprecipitation observed; key to Organic Dissolution: ++ details complete dissolution; + details non-complete dissolution; key to Precipitation: +++: + details qualitative observations of the amount of solid formed; ++: + details qualitative observations of the amount of solid formed; + details qualitative observations of the amount of solid formed; − details no solids formed. As to conditions: for Precipitation: gentamicin API mixed with IP in water; for Reprecipitation: gentamicin:IP organic solution diluted ten-fold in water; for Organic Dissolution: gentamicin:IP pellet in organic solvent (THF). The method, then:
(§1) The fifteen ion pairing (IP) reagents listed above were screened to assess if hydrophobic API salt forms would be formed and would precipitate from solution. Ion pair and API drug properties were calculated with Molinspiration software (Molinspiration Cheminformatics, Slovakia). APIs were dissolved in water at 5 mg mL^−1 concentration and mixed with IPs dissolved in water at varying concentrations to yield different API to IP ratios. The screening process determines whether a particular IP may be used with a given API for NC formation.
(§2) In the case of pre-ion pairing, API and IP are mixed in water to form a water-insoluble precipitate (referred to as an API:IP complex). The water is then removed, and the API:IP complex is dissolved into an organic solvent (along with a block copolymer) for use in the organic stream in FNP. In this case, the API:IP complex is treated as a component in the organic stream of normal FNP. The screening process for the pre-ion paired method FNP involves four sequential tests. • 1. The first test examines the solubility of the IP agent. IP is added to DI water at a concentration that would be required for a 1:1 API:IP charge ratio if the API were dissolved at 5 mg mL^−1. (In this text the ratios are presented as charge ratios of API:IP.) Substantial […] in water is required for successful ion pairing. • 2. The second test examines whether an in situ API:IP complex can be formed in a single step. For example, The second test examines whether solids precipitate upon mixing of the aqueous IP solution with an aqueous API solution. Alternatively, IP in an organic, but water miscible, solution is mixed against the aqueous API solution. The final solution is checked visually to see if precipitation has occurred. In this test, the IP solution is at a concentration such that mixing equal volumes of IP solution and API solution will form a 1:1 API to IP charge ratio. Four API:IP ratios are investigated: 200 μL API solution is mixed with 100 μL IP solution for a 1:0.5 charge ratio; 200 μL API solution is mixed with 200 μL IP solution for a 1:1 charge ratio; 200 μL API solution is mixed with 400 μL IP solution for a 1:2 charge ratio; and 200 μL API solution is mixed with 800 μL IP solution for a 1:4 charge ratio. • 3. The third test examines whether the API:IP complex can be solubilized in the organic phase for subsequent FNP NC formation. Pellets of the precipitate formed in the second test are tested to see if they are soluble in a water-miscible organic solvent such as tetrahydrofuran (THF) or more polar solvents such as dimethyl sulfoxide (DMSO) or methanol (MeOH). For example, if precipitates were formed in the second test, the mixture can be centrifuged at 20800 rcf for 20 minutes, and the aqueous supernatant can be removed in order to recover pelleted precipitate. 200 μL of organic solvent can be added to the pellet; the solution can then be mixed to determine whether the pellet dissolves. • 4. The final (fourth) test assesses if the hydrophobic API:IP complex will re-precipitates when mixed with water, e.g., upon FNP mixing with water as the antisolvent. The organic solvent containing API:IP from the third test is diluted ten-fold in water, and precipitate formation is examined. If a precipitate forms, then the construct is suitable for use in FNP. In Situ Ion Pairing
Several water-soluble counter ion salts IPs were chosen for this investigation to determine the physical properties of the counter ions required for successful complex formation (FIG. 3). A range of carboxylate and sulfonate salt IPs whose acid forms have pKa ranging 5 to −1.9 were tested, as well as salts with a wide range of solubilities and LogP values as high as 7.6 or as low as −4.92. API was dissolved at 5 mg mL^−1 in water in 1× volume, and rapidly mixed with 1× volume of dissolved IP to give a final mixture containing a 1:1 API:IP charge ratio. Mixtures were visually observed to assess if precipitates rapidly formed. […]

A short description of series [2]: Ion-pairing screening using polymyxin B API. Format: physicochemical. On the set-up: key to Reprecipitation: + details re-precipitation observed; − details no re-precipitation observed; key to Organic Dissolution: ++ details complete dissolution; + details non-complete dissolution; key to Precipitation: +++: + details qualitative observations of the amount of solid formed; ++: + details qualitative observations of the amount of solid formed; + details qualitative observations of the amount of solid formed; − details no solids formed. As to conditions: for Precipitation: polymyxin B API mixed with IP in water; for Reprecipitation: polymyxin B:IP organic solution diluted ten-fold in water; for Organic Dissolution: polymyxin B:IP pellet in organic solvent (THF); for precipitation upon mixing and NC formation: FIG. 4, polymyxin. The method, then:
as §1, §2
Several water-soluble counter ion salts IPs were chosen for this investigation to determine the physical properties of the counter ions required for successful complex formation (FIG. 3). A range of carboxylate and sulfonate salt IPs whose acid forms have pKa ranging 5 to −1.9 were tested, as well as salts with a wide range of solubilities and LogP values as high as 7.6 or as low as −4.92. API was dissolved at 5 mg mL^−1 in water in 1× volume, and rapidly mixed with 1× volume of dissolved IP to give a final mixture containing a 1:1 API:IP charge ratio. Mixtures were visually observed to assess if precipitates rapidly formed.

For `CC1(C)C2CC[C@]1(CS(=O)(=O)O)C(=O)C2` [(1R)-(-)-10-Camphorsulfonic Acid, (1R)-(−)-10-camphorsulfonic acid], the Precipitation entry in series [1] and in series [2] was “−” throughout.

Consider `CCCCCCCCS(=O)(=O)[O-].O.[Na+]` [Sodium 1-Octanesulfonate Monohydrate, sodium 1-octanesulfonate monohydrate], for which, in series [1], the Precipitation entry is given as “++”, the Reprecipitation entry is listed as “−” and the “Organic Dissolution” value is “++”. Besides, in series [2], the Precipitation entry is “+++”, the Reprecipitation entry was “−” and the “Organic Dissolution” value is given as “++”.

`CCCCCCCC/C=C\CCCCCCCC(=O)[O-].[Na+]` [Sodium Oleate, sodium oleate]: the Precipitation entry in series [1] is given as “−”. In series [2], the “precipitation upon mixing and NC formation” value was “rapid precipitation and successful NC formation”; the Precipitation result was “+++”; the Reprecipitation entry is “+”; the “Organic Dissolution” value is “++”.

Take `O=S(=O)(O)c1ccccc1` [Benzenesulfonic Acid Monohydrate, benzenesulfonic acid monohydrate]: the Precipitation entry in series [1] and in series [2] was “−” throughout.

In the case of `CCCCCCCCCCCCc1ccc(S(=O)(=O)[O-])cc1.[Na+]` [Sodium Dodecylbenzenesulfonate, sodium dodecylbenezenesulfonate], in series [1], the Precipitation result is “+++”, the Reprecipitation result is given as “+” and the “Organic Dissolution” value is reported as “++”. For the same compound, in series [2], the “precipitation upon mixing and NC formation” value was “rapid precipitation and successful NC formation”; the Precipitation entry is “+++”; the Reprecipitation result is “+”; the “Organic Dissolution” value was “++”.

For `O=S(=O)([O-])CCS(=O)(=O)[O-].[Na+].[Na+]` [Sodium 1,2-Ethanedisulfonate, sodium 1,2-ethanesulfonate], the Precipitation result in series [1] and in series [2] was “−” throughout.

Turning to `CCCCCCCCCCCCOS(=O)(=O)[O-].[Na+]` [Sodium Dodecyl Sulfate, sodium dodecyl sulfate], in series [1], the Precipitation result is recorded as “+++”, the Reprecipitation entry was “+” and the “Organic Dissolution” value was “++”. Also, in series [2], the “precipitation upon mixing and NC formation” value was “rapid precipitation and successful NC formation”; the Precipitation entry is recorded as “+++”; the Reprecipitation entry is listed as “+”; the “Organic Dissolution” value is “++”.

As for `CCCCCC(=O)[O-].[Na+]` [Sodium Hexanoate, Sodium hexanoate], the Precipitation entry in series [1] and in series [2] was “−” each time.

Take `CCCCCCCCCCS(=O)(=O)[O-].[Na+]` [Sodium 1-Decanesulfonate, sodium 1-decanesulfonate]: in series [1], the Precipitation entry is reported as “+++”, the Reprecipitation entry is “+” and the “Organic Dissolution” value is listed as “++”. Moreover, in series [2], the Precipitation result is given as “+++”, the Reprecipitation entry is on record as “+” and the “Organic Dissolution” value was “++”.

In the case of sodium deoxycholate, the results for the Precipitation result in series [1] and in series [2] were “++” and “+++”, respectively.

As to `CCCCCCCS(=O)(=O)[O-].[Na+]` [Sodium 1-Heptanesulfonate, sodium 1-heptanesulfonate], the Precipitation result in series [1] is reported as “−”. In addition, in series [2], the Precipitation entry is listed as “+”, the Reprecipitation result is reported as “−” and the “Organic Dissolution” value is recorded as “+”.

With `CCCCCCCCCC(=O)[O-].[Na+]` [Sodium Decanoate, sodium decanoate], the Precipitation entry in series [1] is “+”. Also, in series [2], the Precipitation result was “++” and the Reprecipitation result is given as “−”.

`CCCCCCCCCCCCCC(=O)[O-].[Na+]` [Sodium Myristate, sodium myristate]: the values for the Precipitation entry in series [1] and in series [2] were “−” and “++”, respectively.
